Data on 19 molecules can be found in patent US11613546B2, “Substituted pyridotriazine compounds and uses thereof” (Gilead Sciences, Inc., priority 2021, dated 2023).

Read-outs that look alike come from different tables or passages of the source.

What all share (type): cell-based
The subject of series [1] is pLai RLuc reporter virus. Nature of the series: HIV MT-4 serum shift antiviral reporter assay. An outline of the steps: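 MT-4 cells pre-infected with pLai RLuc virus for 2 h at 37 °C, then incubated 72 h at 37 °C with compound in medium (RPMI, 10% FBS) with or without 50% human serum; Renilla luminescence read. EC50 from sigmoidal fit; serum shift = EC50(HS/CCM)/EC50(CCM).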
A general note: Reporter assays use an easily measured gene product as a stand-in for the process of interest.

Series [2] concerns HIV-1 (IIIB). Description: Antiviral assay in MT-4 cells. Conditions: HIV-1 IIIB infected MT-4 cells, 5 days, Cell Titer Glo, read-out: MT4 EC50. An outline of the steps: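 MT-4 cells infected with a 1:250 dilution of HIV-1 IIIB stock were incubated with serially diluted (1:3) compound for 5 days at 37 °C. Viability read by Cell Titer Glo luminescence; EC50 is the concentration giving 50% decrease in signal, from sigmoidal dose-response fits.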
Background: Cellular ATP, detected with luciferase, serves as a proxy for viable cell number.

Series [3] concerns MT-4 cells. Description: Cytotoxicity assay in MT-4 cells. An outline of the steps: (§1)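 Uninfected MT-4 cells were incubated with 1:3 serially diluted compound in RPMI/10% FBS for 5 days at 37° C. Viability was read by CellTiter-Glo luminescence, with 10 μM puromycin as the baseline cytotoxicity control. Values are the concentration giving a 50% decrease in luminescence, from sigmoidal dose-response fits.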

Series [4] is described as follows: Cytotoxicity assay in MT-4 cells. Conditions: human. An outline of the steps: as §1
Where [5] appears, read: uninfected MT-4 cells, 5 days, Cell Titer Glo, read-out: CC50.
The mark [6] stands for this setting: Human immunodeficiency virus 1, IIIB, MT4, 120 h.
Setting [7] is: Human immunodeficiency virus 1, 72 h, read-out: RLUC 50% HS (nM), HS/CCM: 50% human serum, 72 h, Renilla Glo.
Setting [8] is: Human immunodeficiency virus 1, 72 h, read-out: RLUC CCM (nM), cell culture media (RPMI, 10% FBS), 72 h, Renilla Glo.

As a reminder, the CC50 is the concentration giving 50% cytotoxicity. As for `C[C@@H]1C[C@@H](F)[C@@H](F)CN2CN1n1cc(C(=O)NCc3ccc(F)cc3F)c(=O)c(O)c1C2=O` (single isomer, unassigned) [Example C38], the EC50 in series [1] (HS/CCM: 50% human serum, 72 h, Renilla Glo, read-out: RLUC 50% HS) amounted to 17 nM; in series [1] (cell culture media (RPMI, 10% FBS), 72 h, Renilla Glo, read-out: RLUC CCM), 1.1 nM; in series [2] it was 1.5 nM. Besides, the CC50 in series [3] (setting [5]) was 13600 nM.

As to `C[C@@H]1CCCCN2CN1n1cc(C(=O)NCc3ccc(F)cc3F)c(=O)c(O)c1C2=O` [Example C15, (1R,2R)—N-(2,4-difluorobenzyl)-9-hydroxy-2-methyl-8,10-dioxo-3,4,5,6,8,10-hexahydro-2H-1,7-methanopyrido[1,2-b][1,2,5]triazecine-11-carboxamide], the EC50 in series [2] stood at 1.9 nM. In addition, in series [3] (setting [5]), the CC50 came to 9970 nM.

On to `C[C@@H]1/C=C\C[C@@H](C)N2CN1C(=O)c1c(O)c(=O)c(C(=O)NCc3c(F)cc(F)cc3F)cn12` [Example C18, (1S,2R,6R,Z)-9-hydroxy-2,6-dimethyl-8,10-dioxo-N-(2,4,6-trifluorobenzyl)-3,6,8,10-tetrahydro-2H-1,7-methanopyrido[1,2-b][1,2,5]triazecine-11-carboxamide], for which, in series [2], the EC50 turned out to be 4.3 nM. In series [3], it took 13400 nM to reach half-maximal cytotoxicity (CC50).

Turning to `C[C@H]1/C=C\C[C@H](C)N2CN1C(=O)c1c(O)c(=O)c(C(=O)NCc3c(F)cc(F)cc3F)cn12` [Example C20, (1S,2S,6S,Z)-9-hydroxy-2,6-dimethyl-8,10-dioxo-N-(2,4,6-trifluorobenzyl)-3,6,8,10-tetrahydro-2H-1,7-methanopyrido[1,2-b][1,2,5]triazecine-11-carboxamide], the EC50 in series [2] came out at 3.5 nM. Moreover, in series [3] (setting [5]), the CC50 was 16600 nM.

For the molecule `C[C@@H]1C(F)=C[C@H](C)N2CN1n1cc(C(=O)NCc3c(F)cc(F)cc3F)c(=O)c(O)c1C2=O` [Example C36, (1S,2R,5S)-3-fluoro-8-hydroxy-2,5-dimethyl-7,9-dioxo-N-(2,4,6-trifluorobenzyl)-2,5,7,9-tetrahydro-1,6-methanopyrido[1,2-b][1,2,5]triazonine-10-carboxamide], the EC50 in series [2] worked out at 1.6 nM. Besides, the half-maximal cytotoxic concentration (CC50) in series [3] (setting [5]) worked out at 16600 nM.

For `C[C@H]1C=CC(C)(C)N2CN1C(=O)c1c(O)c(=O)c(C(=O)NCc3c(F)cc(F)cc3F)cn12` [Example C48, (1S,5S)-8-hydroxy-2,2,5-trimethyl-7,9-dioxo-N-(2,4,6-trifluorobenzyl)-2,5,7,9-tetrahydro-1,6-methanopyrido[1,2-b][1,2,5]triazonine-10-carboxamide], the EC50 in series [2] came out at 1.5 nM. The 50% cytotoxic concentration (CC50) in series [3] (setting [5]) is 50000 nM.

On to `C[C@@H]1N2CN([C@@H](C)CC1(F)F)n1cc(C(=O)NCc3ccc(F)cc3F)c(=O)c(O)c1C2=O` [Example C59, (1S,2S,5S)—N-(2,4-difluorobenzyl)-4,4-difluoro-8-hydroxy-2,5-dimethyl-7,9-dioxo-2,3,4,5,7,9-hexahydro-1,6-methanopyrido[1,2-b][1,2,5]triazonine-10-carboxamide], for which the EC50 in series [2] (setting [6]) came to 2.8 nM. The cytotoxic concentration (CC50) in series [3] (setting [5]) turned out to be 50000 nM.

Turning to `C[C@H]1C=C[C@@]2(CCOC2)N2CN1C(=O)c1c(O)c(=O)c(C(=O)NCc3c(F)cc(F)cc3F)cn12` [Example C85, (1′S,3R,5′S)-8′-hydroxy-5′-methyl-7′,9′-dioxo-N-(2,4,6-trifluorobenzyl)-4,5,7′,9′-tetrahydro-2H,5′H-spiro[furan-3,2′-[1,6]methanopyrido[1,2-b][1,2,5]triazonine]-10′-carboxamide], the 50% cytotoxic concentration (CC50) in series [3] (setting [5]) was determined as 29000 nM.

For `C[C@H]1CCC2(CCOC2)N2CN1C(=O)c1c(O)c(=O)c(C(=O)NCc3c(F)cc(F)cc3F)cn12` (stereo partly drawn) [Example C86, (1′S,5′S)-8′-hydroxy-5′-methyl-7′,9′-dioxo-N-(2,4,6-trifluorobenzyl)-4,4′,5,5′,7′,9′-hexahydro-2H,3′H-spiro[furan-3,2′-[1,6]methanopyrido[1,2-b][1,2,5]triazonine]-10′-carboxamide], the EC50 in series [1] (setting [7]) is 14.1 nM; in series [1] (setting [8]) it was 0.27 nM; in series [2] (setting [6]), 0.5 nM. Moreover, the midpoint of cytotoxicity in series [4] (CC50 (nM)), the CC50 at 5 days, lay at 26000 nM.

Turning to `C[C@@H]1[C@H]2C[C@H]2[C@H](C)N2CN1n1cc(C(=O)NCc3c(F)cc(F)cc3F)c(=O)c(O)c1C2=O` [Example C88, (1aS,2R,3S,11S,11aR)-8-hydroxy-2,11-dimethyl-7,9-dioxo-N-(2,4,6-trifluorobenzyl)-1a,2,7,9,11,11a-hexahydro-1H-3,10-methanocyclopropa[g]pyrido[1,2-b][1,2,5]triazonine-6-carboxamide], the EC50 in series [2] worked out at 1.1 nM. Moreover, the CC50 in series [3] (setting [5]) was determined as 34300 nM.

Turning to `C[C@@H]1C=CC(C)(C)N2CN1n1cc(C(=O)NCc3ccc(F)cc3F)c(=O)c(O)c1C2=O` [Example C90, (1S,2R)—N-(2,4-difluorobenzyl)-8-hydroxy-2,5,5-trimethyl-7,9-dioxo-2,5,7,9-tetrahydro-1,6-methanopyrido[1,2-b][1,2,5]triazonine-10-carboxamide], the EC50 in series [1] (setting [7]) came out at 91.9 nM; in series [1] (setting [8]), 0.35 nM; in series [2] (setting [6]), 2 nM. Besides, the CC50 at 5 days in series [4] (setting [5]) came out at 47100 nM.

For `C[C@H]1CC[C@@H](CF)N2CN1n1cc(C(=O)NCc3ccc(F)cc3F)c(=O)c(O)c1C2=O` [Example C96, (1R,2S,5S)—N-(2,4-difluorobenzyl)-5-(fluoromethyl)-8-hydroxy-2-methyl-7,9-dioxo-2,3,4,5,7,9-hexahydro-1,6-methanopyrido[1,2-b][1,2,5]triazonine-10-carboxamide], the EC50 worked out at 958 nM in series [1] (setting [7]), 8.27 nM in series [1] (setting [8]) and 11.2 nM in series [2] (setting [6]). Besides, the half-maximal cytotoxic concentration (CC50) at 5 days in series [4] (setting [5]) stood at 5370 nM.

For the molecule `C[C@H]1C=C[C@@H](CF)N2CN1n1cc(C(=O)NCc3ccc(F)cc3F)c(=O)c(O)c1C2=O` [Example C97, (1R,2S,5S)—N-(2,4-difluorobenzyl)-5-(fluoromethyl)-8-hydroxy-2-methyl-7,9-dioxo-2,5,7,9-tetrahydro-1,6-methanopyrido[1,2-b][1,2,5]triazonine-10-carboxamide], the results for the EC50 in series [1] (setting [7]), in series [1] (setting [8]) and in series [2] (setting [6]) were 1730 nM, 14.7 nM and 34.9 nM, respectively. In addition, the CC50 at 5 days in series [4] (setting [5]) is 9550 nM.

As to `C[C@@H]1CC[C@H](CF)N2CN1n1cc(C(=O)NCc3ccc(F)cc3F)c(=O)c(O)c1C2=O` [Example C98, (1S,2R,5R)—N-(2,4-difluorobenzyl)-5-(fluoromethyl)-8-hydroxy-2-methyl-7,9-dioxo-2,3,4,5,7,9-hexahydro-1,6-methanopyrido[1,2-b][1,2,5]triazonine-10-carboxamide], the EC50 is 462 nM in series [1] (setting [7]), 1.03 nM in series [1] (setting [8]) and 2 nM in series [2] (setting [6]). In series [4] (setting [5]), the cytotoxic concentration (CC50) at 5 days was 8930 nM.

As for `C[C@@H]1C[C@H](F)[C@H](CF)N2CN1n1cc(C(=O)NCc3c(F)cc(F)cc3F)c(=O)c(O)c1C2=O` [Example C99, (1S,2R,4S,5S)-4-fluoro-5-(fluoromethyl)-8-hydroxy-2-methyl-7,9-dioxo-N-(2,4,6-trifluorobenzyl)-2,3,4,5,7,9-hexahydro-1,6-methanopyrido[1,2-b][1,2,5]triazonine-10-carboxamide], the EC50 turned out to be 349 nM in series [1] (setting [7]), 0.52 nM in series [1] (setting [8]) and 1.7 nM in series [2] (setting [6]). Moreover, the CC50 at 5 days in series [4] (setting [5]) is 9440 nM.

For `C[C@H]1C=CC2(CCC2)N2CN1C(=O)c1c(O)c(=O)c(C(=O)NCc3c(F)cc(F)cc3F)cn12` [Example C104, (1′S,5′S)-8′-hydroxy-5′-methyl-7′,9′-dioxo-N-(2,4,6-trifluorobenzyl)-7′,9′-dihydro-5′H-spiro[cyclobutane-1,2′-[1,6]methanopyrido[1,2-b][1,2,5]triazonine]-10′-carboxamide], the EC50 was 140 nM in series [1] (setting [7]), 0.44 nM in series [1] (setting [8]) and 1.4 nM in series [2] (setting [6]). This molecule had a CC50 at 5 days in series [4] (CC50 (nM)) of 19700 nM.

For the molecule `C[C@H]1CCC2(CCC2)N2CN1C(=O)c1c(O)c(=O)c(C(=O)NCc3c(F)cc(F)cc3F)cn12` [Example C105, (1′S,5′S)-8′-hydroxy-5′-methyl-7′,9′-dioxo-N-(2,4,6-trifluorobenzyl)-4′,5′,7′,9′-tetrahydro-3′H-spiro[cyclobutane-1,2′-[1,6]methanopyrido[1,2-b][1,2,5]triazonine]-10′-carboxamide], the EC50 was determined as 998 nM in series [1] (setting [7]), 1.38 nM in series [1] (setting [8]) and 3 nM in series [2] (setting [6]). Besides, in series [4] (CC50 (nM)), half-maximal cytotoxicity (CC50 at 5 days) was put at 13600 nM.

Regarding `CC[C@H]1C=C[C@H](C)N2CN1n1cc(C(=O)NCc3c(F)cc(F)cc3F)c(=O)c(O)c1C2=O` [Example C106, (1S,2S,5S)-2-ethyl-8-hydroxy-5-methyl-7,9-dioxo-N-(2,4,6-trifluorobenzyl)-2,5,7,9-tetrahydro-1,6-methanopyrido[1,2-b][1,2,5]triazonine-10-carboxamide], the EC50 in series [1] (setting [7]) was 107 nM; in series [1] (setting [8]) it was 0.22 nM; in series [2] (setting [6]), 1.7 nM. Moreover, the CC50 at 5 days in series [4] (setting [5]) was determined as 18400 nM.

With “(1S,2R,5S)—N-(2,4-difluorobenzyl)-8-hydroxy-2,3,5-trimethyl-7,9-dioxo-2,5,7,9-tetrahydro-1,6-methanopyrido[1,2-b][1,2,5]triazonine-10-carboxamide [Example C62]”, the EC50 in series [2] was found to be 1.4 nM. Besides, in series [3], the cytotoxic concentration (CC50) was 50000 nM.
